Assay results published in patent US8961970B2, “Combination therapy” (Novartis AG, priority 2012, dated 2015).

Assays:
AsPC-1 cells = assay: Cell proliferation / viability assay (CellTiter-Glo, dose matrix) in AsPC-1 cells; format: cell-based
Protocol: (§1) A cell proliferation assay was performed to investigate the activity of the combination of COMPOUND A and ANTIBODY A on Insulin-like Growth Factor 1 (IGF1)-induced proliferation of the KRAS mutant cell lines Miapaca-2 and AsPC-1. To evaluate the combination effect in a non-biased way, and to identify synergistic effects at different concentrations, the study was conducted using a “dose matrix” scheme (described in detail below).
(§2) COMPOUND A (10 mM) was stored in aliquots at −20° C. ANTIBODY A (0.2 mM in 1% BSA) was stored in aliquots at 4° C. Insulin-like Growth Factor-1 (IGF1; R&D System, Cat #291-G1) was reconstituted at 100 ug/mL in sterile Phosphate Buffered Saline (PBS).
(§3) The KRAS mutant, pancreatic cancer cell lines Miapaca-2 and AsPC-1 were cultured in DMEM medium (ATCC Cat #30-2002) and RPMI-1640 (ATCC Cat #30-2001) plus 10% Fetal Bovine Serum (FBS; Invitrogen Cat #10099-141) as recommended by the supplier. Cells were cultured in T-150 flasks using standard cell culture techniques and split upon reaching 80% confluency. TryPLE Express (Invitrogen #12604-013, no phenal red) was used for all cell dissociation. Cell count and viability were measured using Trypan dye exclusion with a ViCell counter (Beckman-Coulture). Cells were determined to be free of Mycoplasma using a PCR detection method (www.radil.missouri.edu). […]

Miapaca-2 cells = assay: Cell proliferation / viability assay (CellTiter-Glo, dose matrix) in Miapaca-2 cells; format: cell-based
Protocol: as §1, §2, §3

Cn1cnc2c(F)c(Nc3ccc(Br)cc3F)c(C(=O)NOCCO)cc21 [COMPOUND A, 6-(4-bromo-2-fluorophenylamino)-7-fluoro-3-methyl-3H-benzoimidazole-5-carboxylic acid (2-hydroxyethyoxy)-amide]
single agent anti-proliferative activity (AsPC-1 cells; AsPC-1, KRAS mutant pancreatic cancer cell line, 120 hours incubation, presence and absence of IGF1 (100 ng/ml)): concentration dependent anti-proliferative activity
effect of addition of IGF1 on single agent activity (AsPC-1 cells; AsPC-1, with versus without IGF1): slightly dampen
single agent anti-proliferative activity (Miapaca-2 cells; Miapaca-2, KRAS mutant pancreatic cancer cell line, 120 hours incubation, presence and absence of IGF1 (100 ng/ml)): concentration dependent anti-proliferative activity
effect of addition of IGF1 on single agent activity (Miapaca-2 cells; Miapaca-2, with versus without IGF1): slightly dampen
